These results are taken from patent US11253524B2 (Gilead Sciences, Inc., priority 2018, dated 2022).

Series [1] relates to cryopreserved hepatocytes. The series can be described thus: Metabolites of [14C]BIC in cryopreserved hepatocytes, monkey. As to conditions: Cynomolgus Monkey hepatocytes, 4 hours, [14C]BIC 20 μM. It is filed as in vitro ADME. The source says:
(§1) Metabolic pathways included hydroxylation (3 variants), N-dealkylation, and direct glucuronidation. All human metabolites were also observed in nonclinical species. Using the hepatocyte system where the full range of hepatic metabolic enzymes are represented, it appeared that the metabolism of BIC was extensive in monkey and dog but lower in rat and human.

Series [2] can be described thus: In vivo BIC metabolism, plasma profile after oral [14C]BIC, mouse. As to conditions: transgenic mice, 0 to 48 hours post dose, ND = not detected. The source says: Metabolic pathways included hydroxylation, oxidative defluorination, direct glucuronidation, and oxidation followed by phase II conjugation. In the monkey, BIC was metabolized through the oxidative pathways to a greater extent compared to rat and human.

Series [3] concerns cryopreserved hepatocytes. The series can be described thus: Metabolites of [14C]BIC in cryopreserved hepatocytes, rat. It is filed as in vitro ADME. Particulars: Wister-Han Rat hepatocytes, 4 hours, [14C]BIC 20 μM.
From the text: as §1

Series [4] has as its system cryopreserved hepatocytes. The series can be described thus: Metabolites of [14C]BIC in cryopreserved hepatocytes, dog. It is filed as in vitro ADME. As to conditions: Beagle Dog hepatocytes, 4 hours, [14C]BIC 20 μM.
From the text: as §1

For series [5], the system named is cryopreserved hepatocytes. As to the kind of experiment: Metabolites of [14C]BIC in cryopreserved hepatocytes, human. It is filed as in vitro ADME. Particulars: 4 hours, [14C]BIC 20 μM.
From the text: as §1

Series [6] can be described thus: Stability of synthetic M15 observed during purification. It is filed as physicochemical. As to the method: Anomeric bromination of 1 with 33% HBr in acetic acid gave bromide 2 in 70% crystallized yield. Treatment of phenol 3 with bromide 2 in the presence of Ag2CO3 in acetonitrile at 60° C. produced compound 4 in 75% yield after reverse phase chromatography. Deprotection of 4 with triethylamine in methanol/water gave clean conversion to glucuronic acid 5 (M15). The reaction was stopped at 90% conversion since the amount of 3 present in the reaction started to increase. The mixture was purified by reverse phase chromatography with 0.1% TFA in the chromatography solvent. The free acid was isolated after lyophilization, however it contained a significant amount of 3. […] Another batch was purified using the same method as before but the TFA was neutralized with triethylamine before lyophilization. The compound was stable to the conditions but contained a large amount of triethylammonium trifluoroacetate. Not all salt was removed. The material was purified by reverse phase chromatography but without TFA in the solvent. After lyophilization the triethylamine salt of M15 (5) was isolated in high purity and 24% overall yield.

SMILES strings stand for the structures.

With `O=C(NCc1c(F)cc(F)cc1F)c1cn2c(c(O)c1=O)C(=O)N1[C@H]3CC[C@H](C3)O[C@@H]1C2` [BIC, bictegravir, reference compound], the “Fraction of Radiochromatogram (%)” value in series [1] turned out to be 52.4%; in series [3], 91.5%; in series [4] it was 78.7%; in series [5] it was 93.9%. For the same compound, the “% of Total Radioactivity in AUC Pooled Plasma” value in series [2] came out at 95.5%.
For the compound `O=C(NCc1c(F)cc(F)cc1F)c1cn2c(c(O[C@@H]3O[C@H](C(=O)O)[C@@H](O)[C@H](O)[C@H]3O)c1=O)C(=O)N1[C@H]3CC[C@H](C3)O[C@@H]1C2` [Metabolite M15], in series [6] (free acid, neutral or acidic conditions), the “Stability of the free acid” value is given as “unstable in either neutral or acidic conditions”. In addition, in series [6] (triethylamine salt), the “Stability of the triethylamine salt” value was “appeared to be stable”.
